# Data: patent US20230159453A1 (COCRYSTAL PHARMA, INC., priority 2020, published 2023)
# Target: SARS2 protease (Severe acute respiratory syndrome coronavirus 2, UniProt P0DTD1)
# Assay: SARS-CoV-2 protease inhibition assay (SARS2 FRET protease assay)
# Type: biochemical
# Details: SARS-CoV-2 protease 25 nM, FRET, peptide substrate 1.3 μM, 30 minutes at 30° C., compounds 20 μM to 1.0 nM; read-out: IC50
row,Structure (SMILES),IC50
1,"CC(C)(c1cccc(Cl)c1)[C@@H](OC(=O)N[C@@H](CC1CCCCC1)C(=O)N[C@@H](C[C@@H]1CCNC1=O)C(=O)C(=O)NC1CC1)c1cccc(F)c1 [Compound C184, (S)-2-(3-chlorophenyl)-1-(3-fluorophenyl)-2-methylpropyl ((S)-3-cyclohexyl-1-(((S)-4-(cyclopropylamino)-3,4-dioxo-1-((S)-2-oxopyrrolidin-3-yl)butan-2-yl)amino)-1-oxopropan-2-yl)carbamate]",2320 nM
2,"CC(C)(c1cccc(Cl)c1)C(OC(=O)N[C@@H](CC1CCCCC1)C(=O)N[C@@H](C[C@@H]1CCNC1=O)C(=O)C(N)=O)c1cccc(F)c1 (stereo partly drawn) [Compound C120, 2-(3-Chlorophenyl)-1-(3-fluorophenyl)-2-methylpropyl ((S)-1-(((S)-4-amino-3,4-dioxo-1-((S)-2-oxopyrrolidin-3-yl)butan-2-yl)amino)-3-cyclohexyl-1-oxopropan-2-yl) carbamate]",1060 nM
3,CCCCC[C@H](NC(=O)OC(c1ccccc1)C(C)(C)c1cccc(Cl)c1)C(=O)N[C@H](C=O)C[C@@H]1CCNC1=O (stereo partly drawn) [Compound C267],100 nM
4,"CCOP(=O)(OCC)C(O)C(CC1CC2(CCN(C(C)=O)CC2)NC1=O)NC(=O)[C@H](CC1CCCCC1)NC(=O)c1cc2ccccc2[nH]1 (stereo partly drawn) [Compound C81, Diethyl (3-(8-acetyl-2-oxo-1,8-diazaspiro[4.5]decan-3-yl)-2-((S)-3-cyclohexyl-2-(1H-indole-2-carboxamido)propanamido)-1-hydroxypropyl)phosphonate]",200 nM
5,"CS(=O)(=O)N1CCC2(CC1)CC(C[C@@H](C=O)NC(=O)[C@H](CC1CCCCC1)NC(=O)OCc1cccc(Cl)c1)C(=O)N2 (stereo partly drawn) [Compound C178, 3-Chlorobenzyl ((2S)-3-cyclohexyl-1-(((2S)-1-(8-(methylsulfonyl)-2-oxo-1,8-diazaspiro[4.5]decan-3-yl)-3-oxopropan-2-yl)amino)-1-oxopropan-2-yl)carbamate]",71 nM
6,CC(C)(c1cccc(Cl)c1)C(OC(=O)N[C@@H](Cc1ccccc1)C(=O)N[C@@H](C[C@@H]1CCNC1=O)C(=O)C(=O)NC1CC1)c1ccccc1 (stereo partly drawn) [Compound C284],1570 nM
7,"CC(C)C[C@H](NC(=O)OC1CCCC1Cc1cccc(Cl)c1)C(=O)N[C@@H](C[C@@H]1CCNC1=O)C(=O)NS(=O)(=O)C1CC1 (stereo partly drawn) [Compound C239, 2-(3-Chlorobenzyl) cyclopentyl ((S)-1-(((S)-1-(cyclopropanesulfonamido)-1-oxo-3-((S)-2-oxopyrrolidin-3-yl)propan-2-yl)amino)-4-methyl-1-oxopentan-2-yl) carbamate]",> 20000 nM
8,"CC1(C)CC(CC(C=O)NC(=O)[C@H](CC2CCCCC2)NC(=O)OCc2cccc(Cl)c2)C(=O)N1 (stereo partly drawn) [Compound C198, 3-chlorobenzyl ((2S)-3-cyclohexyl-1-((1-(5,5-dimethyl-2-oxopyrrolidin-3-yl)-3-oxopropan-2-yl)amino)-1-oxopropan-2-yl)carbamate]",4.7 nM
9,CC(C)(c1cccc(Cl)c1)[C@H](OC(=O)N[C@@H](CC1CCCCC1)C(=O)N[C@@H](C[C@@H]1CCNC1=O)C(=O)C(N)=O)c1cccc(F)c1 [Compound C183],249 nM
10,"O=C(N[C@@H](CC1CCCCC1)C(=O)N[C@@H](CC1CC2(CCCCC2)NC1=O)C(=O)CCl)OCc1cccc(Cl)c1 (stereo partly drawn) [Compound C197, 3-Chlorobenzyl ((2S)-1-(((2S)-4-chloro-3-oxo-1-(2-oxo-1-azaspiro[4.5]decan-3-yl)butan-2-yl)amino)-3-cyclohexyl-1-oxopropan-2-yl)carbamate]",620 nM
11,"CS(=O)(=O)N1CCC(OC(=O)N[C@@H](CC2CCCCC2)C(=O)N[C@H](C=O)CCC(=O)N2CCOc3ccccc3C2)CC1 [Compound C30, 1-(Methylsulfonyl) piperidin-4-yl((S)-3-cyclohexyl-1-(((S)-5-(2,3-dihydrobenzo[f][1,4]oxazepin-4(5H)-yl)-1,5-dioxopentan-2-yl)amino)-1-oxopropan-2-yl)carbamate]",42300 nM
12,"NC(=O)C(=O)[C@H](C[C@@H]1CCNC1=O)NC(=O)[C@H](CC1CCCCC1)NC(=O)OC(Cc1cccc(Cl)c1)c1ccccc1 (stereo partly drawn) [Compound C116, 2-(3-Chlorophenyl)-1-phenylethyl ((S)-1-(((S)-4-amino-3,4-dioxo-1-((S)-2-oxopyrrolidin-3-yl)butan-2-yl)amino)-3-cyclohexyl-1-oxopropan-2-yl)carbamate]",4840 nM
13,"COc1cccc2[nH]c(C(=O)N[C@@H](CC(C)C)C(=O)NC(CC3CC4(CCCCC4)NC3=O)C(=O)CO)cc12 (stereo partly drawn) [Compound C233, N-((2S)-1-((4-hydroxy-3-oxo-1-(2-oxo-1-azaspiro[4.5]decan-3-yl)butan-2-yl)amino)-4-methyl-1-oxopentan-2-yl)-4-methoxy-1H-indole-2-carboxamide]",20 nM
14,"O=C(N[C@@H](CC1CCCCC1)C(=O)N[C@@H](C[C@H]1CC2(CCCCC2)NC1=O)C(=O)C(=O)NC1CC1)OCc1cccc(Cl)c1 [Compound C149, 3-Chlorobenzyl ((S)-3-cyclohexyl-1-(((S)-4-(cyclopropylamino)-3,4-dioxo-1-((S)-2-oxo-1-azaspiro[4.5]decan-3-yl)butan-2-yl)amino)-1-oxopropan-2-yl)carbamate]",3970 nM
15,"CCOP(=O)(OCC)C(O)C(CC1CC2(CCN(C(C)=O)CC2)NC1=O)NC(=O)[C@H](CC(C)C)NC(=O)c1cc2ccccc2[nH]1 (stereo partly drawn) [Compound C94, Diethyl (2-((S)-2-(1H-indole-2-carboxamido)-4-methylpentanamido)-3-(8-acetyl-2-oxo-1,8-diazaspiro[4.5]decan-3-yl)-1-hydroxypropyl)phosphonate]",2600 nM
16,"CC(C)C[C@H](NC(=O)OC(Cc1ccccc1)c1ccccc1)C(=O)N[C@@H](C[C@@H]1CCNC1=O)C(=O)C(=O)NCc1ccccn1 (stereo partly drawn) [Compound C68, 1,2-Diphenylethyl ((S)-1-(((S)-3,4-dioxo-1-((S)-2-oxopyrrolidin-3-yl)-4-((pyridin-2-ylmethyl)amino)butan-2-yl)amino)-4-methyl-1-oxopentan-2-yl)carbamate]",2100 nM
17,"CC(C)C[C@H](NC(=O)OCc1cccc(Cl)c1)C(=O)NC(C=O)CC1CC2(CCCCC2)NC1=O (stereo partly drawn) [Compound C66, 3-Chlorobenzyl ((2S)-4-methyl-1-oxo-1-((1-oxo-3-(2-oxo-1-azaspiro[4.5]decan-3-yl)propan-2-yl)amino)pentan-2-yl)carbamate]",100 nM
18,"CCCCCOC(=O)N[C@@H](CC1CCCCC1)C(=O)N[C@@H](CCC(=O)N1CCOc2ccccc2C1)C(O)P(=O)(OCC)OCC (stereo partly drawn) [Compound C6, Pentyl ((2S)-3-cyclohexyl-1-(((2S)-1-(diethoxyphosphoryl)-5-(2,3-dihydrobenzo[f][1,4]oxazepin-4(5H)-yl)-1-hydroxy-5-oxopentan-2-yl)amino)-1-oxopropan-2-yl)carbamate]",> 200000 nM
19,"CC(=O)N1CCC2(CC1)CC(CC(C=O)NC(=O)[C@H](CC(C)C)NC(=O)c1cc3ccccc3[nH]1)C(=O)N2 (stereo partly drawn) [Compound C74, N-((2S)-1-((1-(8-acetyl-2-oxo-1,8-diazaspiro[4.5]decan-3-yl)-3-oxopropan-2-yl)amino)-4-methyl-1-oxopentan-2-yl)-1H-indole-2-carboxamide]",140 nM
20,"CC(C)C[C@H](NC(=O)OC1CCN(C(=O)OC(C)(C)C)c2ccccc21)C(=O)N[C@@H](C[C@@H]1CCNC1=O)C(O)S(=O)(=O)O (stereo partly drawn) [Compound C58, (2S)-2-((2S)-2-((((1-(tert-butoxycarbonyl)-1,2,3,4-tetrahydroquinolin-4-yl)oxy)carbonyl)amino)-4-methylpentanamido)-1-hydroxy-3-((S)-2-oxopyrrolidin-3-yl) propane-1-sulfonate]",100 nM
21,"CC1(C)CC(CC(NC(=O)[C@H](CC2CCCCC2)NC(=O)OCc2cccc(Cl)c2)C(=O)C(=O)NC2CC2)C(=O)N1 (stereo partly drawn) [Compound C244, 3-Chlorobenzyl ((2S)-3-cyclohexyl-1-((4-(cyclopropylamino)-1-(5,5-dimethyl-2-oxopyrrolidin-3-yl)-3,4-dioxobutan-2-yl)amino)-1-oxopropan-2-yl) carbamate]",1730 nM
22,"CN(Cc1cccc(Cl)c1)C(=O)N[C@@H](CC1CCCCC1)C(=O)N[C@H](C=O)CCC(=O)N1CCOc2ccccc2C1 [Compound C35, (S)-2-(3-(3-Chlorobenzyl)-3-methylureido)-3-cyclohexyl-N—((S)-5-(2,3-dihydrobenzo[f][1,4]oxazepin-4(5H)-yl)-1,5-dioxopentan-2-yl)propanamide]",18900 nM
23,"CC(C)C[C@H](NC(=O)OC1CCN(C(=O)OC(C)(C)C)CC1)C(=O)N[C@H](C=O)C[C@@H]1CCNC1=O [Compound C34, Tert-butyl 4-((((S)-4-methyl-1-oxo-1-(((S)-1-oxo-3-((S)-2-oxopyrrolidin-3-yl)propan-2-yl)amino)pentan-2-yl)carbamoyl)oxy) piperidine-1-carboxylate]",100 nM
24,"CC(C)(c1cccc(Cl)c1)C(OC(=O)N[C@@H](CC1CCCCC1)C(=O)N[C@@H](C[C@@H]1CCNC1=O)C(=O)C(N)=O)c1ccc2c(c1)CCC2 (stereo partly drawn) [Compound C131, 2-(3-Chlorophenyl)-1-(2,3-dihydro-1H-inden-5-yl)-2-methylpropyl ((S)-1-(((S)-4-amino-3,4-dioxo-1-((S)-2-oxopyrrolidin-3-yl)butan-2-yl)amino)-3-cyclohexyl-1-oxopropan-2-yl)carbamate]",15800 nM
25,"CC(C)(C1CCCCC1)C(NC(=O)OCc1ccccc1)C(=O)N[C@H](C=O)C[C@@H]1CCNC1=O (stereo partly drawn) [Compound C140, Benzyl (3-cyclohexyl-3-methyl-1-oxo-1-(((S)-1-oxo-3-((S)-2-oxopyrrolidin-3-yl)propan-2-yl)amino)butan-2-yl)carbamate]",405 nM
26,CC(C)C[C@H](NC(=O)OC(c1ccccc1)C(F)(F)c1cccc(Cl)c1)C(=O)N[C@@H](C[C@@H]1CCNC1=O)C(=O)CO (stereo partly drawn) [Compound C279],6590 nM
27,"CC(C)C[C@H](NC(=O)OC1CCCC1Cc1ccccc1)C(=O)NC(C[C@@H]1CCNC1=O)C(=O)C(=O)NC1CC1 (stereo in doubt) [Compound C89, 2-Benzylcyclopentyl ((S)-1-(((R)-4-(cyclopropylamino)-3,4-dioxo-1-((S)-2-oxopyrrolidin-3-yl)butan-2-yl)amino)-4-methyl-1-oxopentan-2-yl)carbamate]",300 nM
